This is an account of results in US10745395B2, “Compounds for their use as drugs for the treatment and/or the prevention of infection(s) caused by biofilm-forming bacteria” (CENTRE NATIONAL DE LA RECHERCHE SCIENTIFIQUE, priority 2014, dated 2020).

What all share (format): cell-based, Pseudomonas aeruginosa
Assay [1] has as its system P. aeruginosa strain PAR 50. In words: Antibiotic susceptibility test, disk diffusion (EUCAST). Set-up: key: R means resistant to the antibiotic; S means sensitive to the antibiotic. The conditions noted are these: disk load given per antibiotic. As to the method:
(§1) All tests were performed on Pseudomonas aeruginosa strains coded: PAR 5, PAR 20, PAR 50, isolated from suppurated wounds of three male patients with chronic diabetic foot infections.
(§2) Drug resistance of the P. aeruginosa strains were tested using the disk diffusion method. Interpretation of the drug resistance of the Pseudomonas aeruginosa strains was done in accordance with the EUCAST standards (see the reference below for more information): http://www.eucast.org/fileadmin/src/media/PDFs/EUCAST_files/Breakpoint tables/Breakpoint_table_v_3.1.pdf.
(§3) To determine the drug resistance of the strains, the following antibiotics were used: amikacin, ciprofloxacin, gentamicin, piperacillin, tobramycin, ceftazidime (Oxoid, Basingstoke, UK). R means resistant to the antibiotic and S means sensitive to the antibiotic.

The subject of assay [2] is P. aeruginosa strain PAR 20. The assay is described as above. Set-up: key: R means resistant to the antibiotic; S means sensitive to the antibiotic. The conditions noted are these: disk load given per antibiotic. As to the method: as §1, §2, §3
The test system of assay [3] is P. aeruginosa strain PAR 5. The description is as above. Set-up: key: R means resistant to the antibiotic; S means sensitive to the antibiotic. The conditions noted are these: disk load given per antibiotic. As to the method: as §1, §2, §3
Assay [4] has as its system P. aeruginosa strain PAR 5 biofilm. In words: Early biofilm model, Congo red staining. The conditions noted are these: for absorbance (Congo red, biofilm formation): 0.9 mM, 492 nm. In outline:
(§4)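 Biofilm set up from 1×10^8 CFU/ml P. aeruginosa in TSB, centrifuged 10 min at 2000 rpm; iminosugars at 0.9 mM added at seeding, incubated up to 48 h at 37° C. Biofilm stained with 0.1% Congo red for 30 min and read at 492 nm at 0, 0.5, 8, 24 and 48 h, with viable counts in parallel; TSB-only cultures served as control.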

For assay [5], the system named is P. aeruginosa strain PAR 20 biofilm. In words: Early biofilm model, Congo red staining. The conditions noted are these: for absorbance (Congo red, biofilm formation): early biofilm, 0.9 mM, 492 nm. In outline:
as §4

For assay [6], the system named is P. aeruginosa strain PAR 50 biofilm. In words: Early biofilm model, Congo red staining. Particulars: for absorbance (Congo red, biofilm formation): early biofilm, 0.9 mM, 492 nm. Put shortly: as §4
Assay [7] relates to P. aeruginosa strain PAR 5 biofilm. In words: Reduction of biofilm growth (percent vs culture control). Put shortly: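 Iminosugars at 0.9 mM final were added to P. aeruginosa in TSB either at seeding (early biofilm, 48 h at 37° C) or 48 h after bacterial adherence (mature biofilm). Biofilm stained with Congo Red and read spectrophotometrically; percent decrease in thickness is the mean of 3 measurements relative to untreated control (100%).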

Assay [8] relates to P. aeruginosa strain PAR 50. In words: Number of viable bacteria in early and mature biofilm (viable count). In outline:
(§5)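 Biofilm contents of P. aeruginosa PAR 5, PAR 20 or PAR 50 wells sampled at 0-96 h, iminosugars added at 48 h. Decimal dilutions in TSB were plated on McConkey agar, incubated 24 h at 37° C., and colonies counted as log CFU/ml; detection limit 100 CFU/ml.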

For assay [9], the system named is P. aeruginosa strain PAR 20. Described as above. Put shortly: as §5
In assay [10] the test system is P. aeruginosa strain PAR 5. The assay is described as above. In outline:
as §5

Assay [11] has as its system P. aeruginosa strain PAR 50 biofilm. In words: Reduction of biofilm growth (percent vs culture control). In outline: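 Biofilms grown in TSB at 37 °C; compounds at 0.9 mM final added at inoculation (early biofilm, 48 h) or 48 h after bacterial adherence (mature biofilm). Congo Red-stained biofilm read by spectrophotometry, mean of 3 measurements; reduction expressed as percent versus untreated control set to 100%.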

Assay [12] deals with P. aeruginosa strain PAR 5 biofilm. In words: Mature biofilm model, Congo red staining. The conditions noted are these: for absorbance (Congo red, biofilm development): mature biofilm, compound added 48 h after induction of biofilm. Put shortly:
(§6)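 Compounds added 48 h after bacterial adherence in 96-well plates; biofilm checked at 48, 48.5, 56, 72 and 96 h. Biomass stained with 0.1% Congo red for 30 min at room temperature, washed, absorbance read at 492 nm. Triplicate means ±SD.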

In assay [13] the test system is P. aeruginosa strain PAR 20 biofilm. In words: Mature biofilm model, Congo red staining. The conditions noted are these: for absorbance (Congo red, biofilm development): mature biofilm, compound added 48 h after induction of biofilm. In outline:
as §6

The subject of assay [14] is P. aeruginosa strain PAR 50 biofilm. The assay can be described thus: Mature biofilm model, Congo red staining. The conditions noted are these: for absorbance (Congo red, biofilm development): mature biofilm, compound added 48 h after induction of biofilm. Put shortly:
as §6

In assay [15] the test system is P. aeruginosa strain PAR 20 biofilm. The assay can be described thus: Reduction of biofilm growth (percent vs culture control).
The mark [16] stands for this setting: in comparison with culture control.

Turning to `NCC[C@H](O)C(=O)N[C@@H]1C[C@H](N)[C@@H](O[C@H]2O[C@H](CN)[C@@H](O)[C@H](O)[C@H]2O)[C@H](O)[C@H]1O[C@H]1O[C@H](CO)[C@@H](O)[C@H](N)[C@H]1O` [Amikacin], the “Antibiotic susceptibility (according to EUCAST)” value (from here on “Antibiotic susceptibility”) in [1] was “R”; in assay [2] it was “S”; in assay [3], “S”.
In the case of `CC(C)(O/N=C(\C(=O)N[C@@H]1C(=O)N2C(C(=O)[O-])=C(C[n+]3ccccc3)CS[C@H]12)c1csc(N)n1)C(=O)O` [Ceftazidime], the “Antibiotic susceptibility” value in [1] is recorded as “S”; in [2], “S”; in [3], “R”.
Consider `O=C(O)c1cn(C2CC2)c2cc(N3CCNCC3)c(F)cc2c1=O` [Ciprofloxacin], for which the “Antibiotic susceptibility” value in [1], in assay [2] and in assay [3] was “S” each time.
Consider `CCC[C@H]1N[C@@H](CO)[C@H](O)[C@H]1O` [Compound 4, β-1-C-propyl-1,4-dideoxy-1,4-imino-L-arabinitol], for which, in [4] (early biofilm), the “biofilm formation at 8 hours, 24 hours and 48 hours” value is “no biofilm formation”. The “absorbance (Congo red, biofilm formation)” value in assay [4] (early biofilm, 8 hours) is reported as “about 0.25 a.u”; in assay [4] (early biofilm, 24 hours) it was “about 0.25 a.u”; in [4] (early biofilm, 48 hours), “about 0.25 a.u”; in assay [5] (8 hours) it was “about 0.6 a.u”; in [5] (24 hours), “about 1.0 a.u”; in assay [5] (48 hours) it was “about 0.75 a.u”. For the same compound, the “absorbance (Congo red, biofilm formation)” value was “about 0.8 a.u” in [6] (8 hours), “about 1.4 a.u” in assay [6] (24 hours) and “about 0.9 a.u” in assay [6] (48 hours). The “effect on formation of an early biofilm” value in [4] (setting [16]), in [5] (setting [16]) and in [6] (setting [16]) was “inhibit the formation of an early biofilm” in each case. For the same compound, the “reduction of biofilm growth” value in assay [7] (8 hours of incubation) is recorded as “about 90%”; in assay [7] (24 hours of incubation), “about 90%”; in assay [7] (48 hours of incubation) it was “about 25%”; in [7] (72 hours of incubation), “about 10%”; in assay [11] (8 hours of incubation), “about 60%”; in assay [11] (24 hours of incubation) it was “about 35%”. Moreover, the “reduction of biofilm growth” value is on record as “about 45%” in assay [11] (48 hours of incubation); “about 30%” in [11] (72 hours of incubation); “about 60%” in assay [15] (8 hours of incubation); “about 35%” in assay [15] (24 hours of incubation); “about 45%” in assay [15] (48 hours of incubation); “about 0%” in [15] (72 hours of incubation). The “effect on biofilm growth” value in [7] (notably an early biofilm), in [11] (notably an early biofilm) and in [15] (notably an early biofilm) was “can reduce the biofilm growth” each time. Also, the “number of viable P. aeruginosa” value is given as 1 × 10^7 CFU/ml in assay [8] (early biofilm, 0 h); 2 × 10^8 CFU/ml in assay [8] (early biofilm, 8 h); 7 × 10^8 CFU/ml in assay [8] (early biofilm, 24 h); 1 × 10^8 CFU/ml in assay [8] (early biofilm, 48 h); 3 × 10^9 CFU/ml in assay [8] (mature biofilm, 56 h); 9 × 10^9 CFU/ml in assay [8] (mature biofilm, 72 h). Besides, the “number of viable P. aeruginosa” value in assay [8] (mature biofilm, 96 h) was 1 × 10^9 CFU/ml; in [9] (early biofilm, 0 h), 5 × 10^6 CFU/ml; in [9] (early biofilm, 8 h), 2 × 10^7 CFU/ml; in assay [9] (early biofilm, 24 h), 4 × 10^8 CFU/ml; in [9] (early biofilm, 48 h) it was 3 × 10^9 CFU/ml; in [9] (mature biofilm, 56 h), 9 × 10^8 CFU/ml. Further, the “number of viable P. aeruginosa” value in [9] (mature biofilm, 72 h) is reported as 8 × 10^7 CFU/ml; in assay [9] (mature biofilm, 96 h), 4 × 10^8 CFU/ml; in assay [10] (early biofilm, 0 h), 9 × 10^6 CFU/ml; in assay [10] (early biofilm, 8 h), 3 × 10^6 CFU/ml; in assay [10] (early biofilm, 24 h), 9 × 10^7 CFU/ml; in assay [10] (early biofilm, 48 h), 3 × 10^7 CFU/ml. Besides, the “number of viable P. aeruginosa” value in assay [10] (mature biofilm, 56 h) was 4 × 10^8 CFU/ml; in assay [10] (mature biofilm, 72 h), 3 × 10^8 CFU/ml; in assay [10] (mature biofilm, 96 h), 2 × 10^9 CFU/ml. Besides, the “influence on mature biofilm formation” value in [12], in assay [13] and in [14] was “weak influence” throughout. Further, the “absorbance (Congo red, biofilm development)” value in [12] (48 hours) is listed as “about 0.5 a.u”; in assay [12] (56 hours), “about 1.25 a.u”; in assay [12] (72 hours), “about 1.25 a.u”; in assay [12] (96 hours), “about 0.5 a.u”; in assay [13] (48 hours) it was “about 0.5 a.u”; in assay [13] (56 hours) it was “about 0.75 a.u”. The “absorbance (Congo red, biofilm development)” value in [13] (72 hours) was “about 1.25 a.u”; in assay [13] (96 hours) it was “about 1.75 a.u”; in assay [14] (48 hours) it was “about 1.4 a.u”; in assay [14] (56 hours) it was “about 1.4 a.u”; in assay [14] (72 hours), “about 1.5 a.u”; in assay [14] (96 hours) it was “about 1.75 a.u”.
In the case of `CCN1CCN(C(=O)N[C@@H](C(=O)N[C@@H]2C(=O)N3[C@@H]2SC(C)(C)[C@@H]3C(=O)O)c2ccccc2)C(=O)C1=O` [Piperacillin], the “Antibiotic susceptibility” value is “R” in assay [1], “S” in assay [2] and “S” in assay [3].
`NC[C@H]1O[C@H](O[C@H]2[C@H](O)[C@@H](O[C@H]3O[C@H](CO)[C@@H](O)[C@H](N)[C@H]3O)[C@H](N)C[C@@H]2N)[C@H](N)C[C@@H]1O` [Tobramycin]: the “Antibiotic susceptibility” value in assay [1] was “R”; in assay [2] it was “S”; in assay [3], “S”.
Consider Gentamicin, for which the “Antibiotic susceptibility” value is listed as “R” in assay [1], “S” in assay [2] and “S” in assay [3].
